According to patent publication US9604925B2, “Class II HMG-CoA reductase inhibitors and methods of use” (Purdue Research Foundation, priority 2012, dated 2017):
≈ marks a conversion by molar mass, not a printed value. Marks after values point to notes of the source that are not given here. One block for each molecule: values may come before it.

What was measured:
S. aureus HMGR = S. aureus HMGR (Staphylococcus aureus, UniProt Q9FD86); assay: biochemical
[1] = system: Staphylococcus aureus ATCC 6538 planktonic organisms (not in biofilm); assay: MIC/MBC against planktonic S. aureus ATCC 6538; format: cell-based
[2] = system: Staphylococcus aureus ATCC 6538 adherent organisms (biofilm); assay: MIC/MBC in adherent-cell biofilm of S. aureus ATCC 6538; format: cell-based; settings: for Adherent organisms (biofilm) MIC^b: S. aureus ATCC 6538, 20 h; for Adherent organisms (biofilm) MBC^b: S. aureus ATCC 6538, regrowth 20 h in antibiotic-free MHB
Description: An adherent biofilm for susceptibility testing was formed using a clinical isolate of Staphylococcus aureus (ATCC 6538). S. aureus biofilms were prepared in a tissue culture non-treated polystyrene 96-well plate (Corning) and washed with phosphate-buffered saline (PBS) to remove unbound bacteria. Subsequently, serial twofold dilutions of the compounds in MHB were added to wells containing adherent organisms. The polystyrene plates were incubated for 20 h at 37° C. The MIC was taken as the lowest drug concentration at which observable growth was inhibited.

[3] = system: methicillin-resistant Staphylococcus aureus (MRSA) ATCC 43300; assay: MIC/MBC micro dilution against MRSA; settings: for MRSA MBC: MRSA ATCC 43300, MHB, 20 hours, Table 2; for MBC / MIC: Staphylococcus aureus; for MBC, μM: MRSA, Table 1
J774A.1 cells = assay: In vitro cell viability/cytotoxicity MTS assay; format: cell-based; settings: 100 μM, 24 hours
Description: Cytotoxicity of the compounds was evaluated using J774A.1 cells (mitochondrial function) in the CellTiter 96® AQueous Non-Radioactive Cell Proliferation Assay (Promega). […] Formazan is measured by measuring the absorbance at 490 nm. Briefly, ˜2×10^4 J774A.1 cells suspended in 200 μL DMEM supplemented with 10% fetal bovine serum (FBS), L-glutamine, NaHCO3, pyridoxine-HCl, and […] glucose and preserved with 1% penicillin-streptomycin solution were seeded in 96-well plates and incubated at 37° C. in a 5% CO2 atmosphere. The cells were cultured for 24 hours (60% confluency) before the assays. The J774A.1 cells were further incubated with 100 μM of compounds (2f, […], 2j, and 2e) and DMSO as a control for 24 hours. The culture media was discarded, and the cells in each well were washed with PBS and re-suspended with 100 μL of cell culture media prior to addition of the assay reagent. The plates were incubated for 4 hours at 37° C. in a humidified 5% CO2 atmosphere. The absorbance at 490 nm was recorded using a 96-well Elisa plate reader (SoftMax ProInc., USA). Results were expressed as the percentage mean absorbance by cells upon incubation with various treatments (compounds 2f, 2j, 2i, and 2e) with respect to incubation with DMSO. The results are expressed as means from six measurements±SD.

[4] = system: Candida albicans ATCC 18804; assay: MIC/MFC against Candida albicans in YM broth; format: cell-based; settings: yeast medium broth
Description: Antifungal activities of 22 HMG-CoA Reductase inhibitors were initially tested at 100 μM concentration against Candida albicans ATCC 18804.

[5] = system: vancomycin resistant Enterococcus faecalis (VRE) ATCC 51299; assay: MIC/MBC micro dilution against VRE; settings: VRE ATCC 51299, MHB, 20 hours
[6] = system: vancomycin intermediate Staphylococcus aureus (VISA) NRS1; assay: MIC/MBC against clinical VISA isolate
[7] = system: clinical methicillin-resistant Staphylococcus aureus (MRSA) isolates; assay: MIC/MBC against clinical MRSA isolates
[8] = system: C. elegans infected with VRE; assay: Treatment of C. elegans infected with VRE; settings: VRE-infected worms, 100 μM; for Log CFU/worm: 16 hours treatment; for Log Reduction: versus DMSO control
[9] = system: C. elegans infected with MRSA; assay: Treatment of C. elegans infected with MRSA; settings: MRSA-infected worms, 100 μM; for Log CFU/worm: 16 hours treatment; for Log Reduction: versus DMSO control

Compound: CCc1ccc(NS(=O)(=O)c2ccc(O)c(C(=O)O)c2)cc1 [Compound 2a, 5-[N-(4-ethylphenyl)sulfamoyl]-2-hydroxybenzoic acid]
IC50, μM (S. aureus HMGR): ^d (No significant inhibition of HMGR activity was observed at the concentrations tested.)

Compound: CCCc1ccc(NS(=O)(=O)c2ccc(O)c(C(=O)O)c2)cc1 [Compound 2b, 2-hydroxy-5-[N-(4-propylphenyl)sulfamoyl]benzoic acid]
IC50, μM (S. aureus HMGR): ^d (No significant inhibition of HMGR activity was observed at the concentrations tested.)

Compound: CCCCCCCCCCCCCCc1ccc(NS(=O)(=O)c2ccc(O)c(C(=O)O)c2)cc1 [Compound 2h, 2-hydroxy-5-[N-(4-tetradecylphenyl)sulfamoyl]benzoic acid]
IC50 (S. aureus HMGR): 1.9 µM | improvement of IC50 over lead compound 1 (S. aureus HMGR): 45 fold | MBC, μM [3]: lost bactericidal activity

Compound: CC(C)(C)CCc1ccc(NS(=O)(=O)c2ccc(O)c(C(=O)O)c2)cc1 [Compound 2k, 5-[N-(4-(3,3-dimethylbutyl)phenyl)sulfamoyl]-2-hydroxybenzoic acid]
VRE MBC [5]: 128/128 | MBC, μM [3]: failed to exhibit any activity

Compound: O=C(O)c1cc(S(=O)(=O)Nc2ccc(CCC3CCCCC3)cc2)ccc1O [Compound 2l, 5-[N-(4-(2-cyclohexylethyl)phenyl)sulfamoyl]-2-hydroxybenzoic acid]
IC50 (S. aureus HMGR): 16.2 ± 10 µM | VRE MBC [5]: 64/64 | MRSA MBC [3]: 32/32 | MBC [3]: 32 µM (≈ 12.9 µg/mL) | MIC [3]: 32 µM (≈ 12.9 µg/mL) | MBC [6]: 16 µM (≈ 6.46 µg/mL) | MIC [6]: 16 µM (≈ 6.46 µg/mL) | MBC ([7]; MRSA / NRS123 / USA400): 16 µM (≈ 6.46 µg/mL) | MIC ([7]; MRSA / NRS123 / USA400): 16 µM (≈ 6.46 µg/mL) | MBC ([7]; MRSA / NRS382 / USA100): 16 µM (≈ 6.46 µg/mL) | MIC ([7]; MRSA / NRS382 / USA100): 16 µM (≈ 6.46 µg/mL) | MBC ([7]; MRSA / NRS383 / USA200): 16 µM (≈ 6.46 µg/mL) | MIC ([7]; MRSA / NRS383 / USA200): 16 µM (≈ 6.46 µg/mL) | MBC ([7]; MRSA / NRS384 / USA300): 16 µM (≈ 6.46 µg/mL) | MIC ([7]; MRSA / NRS384 / USA300): 16 µM (≈ 6.46 µg/mL) | MBC ([7]; MRSA / NRS385 / USA500): 16 µM (≈ 6.46 µg/mL) | MIC ([7]; MRSA / NRS385 / USA500): 16 µM (≈ 6.46 µg/mL) | MBC ([7]; MRSA / NRS386 / USA700): 16 µM (≈ 6.46 µg/mL) | MIC ([7]; MRSA / NRS386 / USA700): 16 µM (≈ 6.46 µg/mL) | MBC ([7]; MRSA / NRS387 / USA800): 16 µM (≈ 6.46 µg/mL) | MIC ([7]; MRSA / NRS387 / USA800): 16 µM (≈ 6.46 µg/mL) | MBC ([7]; MRSA / NRS483): 16 µM (≈ 6.46 µg/mL) | MIC ([7]; MRSA / NRS483): 8 µM (≈ 3.23 µg/mL) | MBC ([7]; MRSA / NRS484): 16 µM (≈ 6.46 µg/mL) | MIC ([7]; MRSA / NRS484): 16 µM (≈ 6.46 µg/mL) | Log CFU/worm [8]: 0.43 ± 0.68 Log CFU/worm | Log Reduction [8]: 4.47* | Log CFU/worm [9]: 2.20 ± 0.43 Log CFU/worm | Log Reduction [9]: 2.84*

Compound: O=C(O)c1cc(S(=O)(=O)Nc2ccc(CCc3ccccc3)cc2)ccc1O [Compound 2m, 2-hydroxy-5-[N-(4-phenethylphenyl)sulfamoyl]benzoic acid]
MBC, μM [3]: no enzymatic inhibition or bactericidal activity

Compound: CCCCc1ccc(NS(=O)(=O)c2ccc(OCC(N)=O)c(C(=O)O)c2)cc1 [Compound 3, 5-[N-(4-butylphenyl)sulfamoyl]-2-(carbamoylmethoxy)benzoic acid]
MBC, μM [3]: failed to show any enzymatic inhibition or bactericidal activity

The next lines start with results.

IC50 (S. aureus HMGR): 98 ± 3 µM
Compound: CCCCCc1ccc(NS(=O)(=O)c2ccc(O)c(C(=O)O)c2)cc1 [Compound 2c, 2-hydroxy-5-[N-(4-pentylphenyl)sulfamoyl]benzoic acid]

IC50 (S. aureus HMGR): 77 ± 6 µM | Planktonic organisms (not in biofilm) MIC [1]: 128 µM | Adherent organisms (biofilm) MIC^b [2]: 128 µM | MIC [3]: 128 µM (≈ 48.3 µg/mL)
Compound: CCCCCCc1ccc(NS(=O)(=O)c2ccc(O)c(C(=O)O)c2)cc1 [Compound 2d, 5-[N-(4-hexylphenyl)sulfamoyl]-2-hydroxybenzoic acid]
Planktonic organisms (not in biofilm) MBC [1]: 128 µM | Adherent organisms (biofilm) MBC^b [2]: >128 µM | MRSA MBC [3]: 128/128 | MBC [3]: 128 µM (≈ 48.3 µg/mL)

IC50 (S. aureus HMGR): 28 µM | Candida albicans MIC [4]: 64 µM | Planktonic organisms (not in biofilm) MIC [1]: 64 µM | Adherent organisms (biofilm) MIC^b [2]: 64 µM | MIC [3]: 64 µM (≈ 25.1 µg/mL) | MIC [6]: 16 µM (≈ 6.26 µg/mL) | MIC ([7]; MRSA / NRS123 / USA400): 32 µM (≈ 12.5 µg/mL) | MIC ([7]; MRSA / NRS382 / USA100): 32 µM (≈ 12.5 µg/mL) | MIC ([7]; MRSA / NRS383 / USA200): 16 µM (≈ 6.26 µg/mL) | MIC ([7]; MRSA / NRS384 / USA300): 32 µM (≈ 12.5 µg/mL) | MIC ([7]; MRSA / NRS385 / USA500): 16 µM (≈ 6.26 µg/mL) | MIC ([7]; MRSA / NRS386 / USA700): 32 µM (≈ 12.5 µg/mL) | MIC ([7]; MRSA / NRS387 / USA800): 16 µM (≈ 6.26 µg/mL) | MIC ([7]; MRSA / NRS483): 16 µM (≈ 6.26 µg/mL) | MIC ([7]; MRSA / NRS484): 16 µM (≈ 6.26 µg/mL)
Compound: CCCCCCCc1ccc(NS(=O)(=O)c2ccc(O)c(C(=O)O)c2)cc1 [Compound 2e, 5-[N-(4-heptylphenyl)sulfamoyl]-2-hydroxybenzoic acid]
percentage mean absorbance at 490 nm (MTS) versus DMSO (J774A.1 cells): no significant differences in percentage mean absorption | Candida albicans MFC [4]: 128 µM | Planktonic organisms (not in biofilm) MBC [1]: 64 µM | Adherent organisms (biofilm) MBC^b [2]: 128 µM | VRE MBC [5]: 64/64 | MRSA MBC [3]: 64/64 | MBC [3]: 64 µM (≈ 25.1 µg/mL) | MBC [6]: 16 µM (≈ 6.26 µg/mL) | MBC ([7]; MRSA / NRS123 / USA400): 32 µM (≈ 12.5 µg/mL) | MBC ([7]; MRSA / NRS382 / USA100): 32 µM (≈ 12.5 µg/mL) | MBC ([7]; MRSA / NRS383 / USA200): 32 µM (≈ 12.5 µg/mL) | MBC ([7]; MRSA / NRS384 / USA300): 32 µM (≈ 12.5 µg/mL) | MBC ([7]; MRSA / NRS385 / USA500): 16 µM (≈ 6.26 µg/mL) | MBC ([7]; MRSA / NRS386 / USA700): 32 µM (≈ 12.5 µg/mL) | MBC ([7]; MRSA / NRS387 / USA800): 32 µM (≈ 12.5 µg/mL) | MBC ([7]; MRSA / NRS483): 32 µM (≈ 12.5 µg/mL) | MBC ([7]; MRSA / NRS484): 32 µM (≈ 12.5 µg/mL) | Log CFU/worm [8]: 0.86 ± 1.03 Log CFU/worm | Log Reduction [8]: 4.04* | Log CFU/worm [9]: 1.80 ± 0.10 Log CFU/worm | Log Reduction [9]: 3.24*

IC50 (S. aureus HMGR): 5.9 ± 0.5 µM | MIC [3]: 128 µM (≈ 59.1 µg/mL)
Compound: CCCCCCCCCCCCc1ccc(NS(=O)(=O)c2ccc(O)c(C(=O)O)c2)cc1 [Compound 2g, 5-[N-(4-dodecylphenyl)sulfamoyl]-2-hydroxybenzoic acid]
VRE MBC [5]: 128/128 | MRSA MBC [3]: 128/>128 | MBC [3]: 128 µM (≈ 59.1 µg/mL)

IC50 (S. aureus HMGR): 36 ± 4 µM | Planktonic organisms (not in biofilm) MIC [1]: 128 µM | Adherent organisms (biofilm) MIC^b [2]: 128 µM | MIC [3]: 64 µM (≈ 24.2 µg/mL)
Compound: CC(C)CCCc1ccc(NS(=O)(=O)c2ccc(O)c(C(=O)O)c2)cc1 [Compound 2i, 2-hydroxy-5-[N-(4-(4-methylpentyl)phenyl]sulfamoyl)benzoic acid]
percentage mean absorbance at 490 nm (MTS) versus DMSO (J774A.1 cells): no significant differences in percentage mean absorption | Planktonic organisms (not in biofilm) MBC [1]: 128 µM | Adherent organisms (biofilm) MBC^b [2]: 128 µM

Adherent organisms (biofilm) MIC^b [2]: 4 µM
Compound: CC(=O)NC[C@H]1CN(c2ccc(N3CCOCC3)c(F)c2)C(=O)O1 [Linezolid, linezolid, reference compound]
Adherent organisms (biofilm) MBC^b [2]: 16 µM | Log CFU/worm [8]: 1.47 ± 0.06 Log CFU/worm | Log Reduction [8]: 3.43*
